The source of these data is ChEMBL document CHEMBL5120950, “Discovery and Mechanistic Study of Mycobacterium tuberculosis PafA Inhibitors” (J Med Chem, 2022).

Converted amounts (≈) assume the structure as drawn. The source made the active and inactive calls. The rule behind the calls is not given here.

Assay [1] addresses T1, Pup--protein ligase (Mycobacterium tuberculosis) (UniProt P9WNU7).
T1 sequence (whole entry): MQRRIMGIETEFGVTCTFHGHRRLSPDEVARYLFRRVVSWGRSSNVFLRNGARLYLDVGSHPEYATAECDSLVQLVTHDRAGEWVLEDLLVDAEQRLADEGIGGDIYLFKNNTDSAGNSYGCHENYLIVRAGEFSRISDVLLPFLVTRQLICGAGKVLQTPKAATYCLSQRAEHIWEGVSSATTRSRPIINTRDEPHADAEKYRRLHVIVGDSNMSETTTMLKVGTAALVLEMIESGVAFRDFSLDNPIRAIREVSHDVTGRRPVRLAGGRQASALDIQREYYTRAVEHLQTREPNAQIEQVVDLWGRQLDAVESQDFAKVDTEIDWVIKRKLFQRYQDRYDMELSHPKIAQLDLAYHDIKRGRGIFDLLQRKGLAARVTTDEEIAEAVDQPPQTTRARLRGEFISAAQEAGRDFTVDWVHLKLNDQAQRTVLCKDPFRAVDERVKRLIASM
As to the kind of experiment: Inhibition of Mycobacterium tuberculosis PafA expressed in Escherichia coli BL-21(DE3) assessed as inhibition of pup-ylation using Mtb PanB substrate at 20 uM by SDS-PAGE analysis.

Assay [2] deals with T2, Pup--protein ligase (Mycobacterium tuberculosis, UniProt P9WNU7).
T2 sequence (P9WNU7 whole entry): T1 sequence (whole entry)
As to the kind of experiment: Inhibition of Mycobacterium tuberculosis PafA expressed in Escherichia coli BL-21(DE3) assessed as inhibition of pup-ylation using Mtb PanB substrate by SDS-PAGE analysis.

For assay [3], the system named is Mycobacterium tuberculosis. As to the kind of experiment: Antimycobacterial activity against Mycobacterium tuberculosis H37Ra assessed as inhibition of growth measured after 7 days by microplate reader. The assay is classed as functional. The settings on record: 168 h, time 7 day.
The target in assay [4] is T1, Pup--protein ligase (Mycobacterium tuberculosis). As to the kind of experiment: Inhibition of Mycobacterium tuberculosis PafA expressed in Escherichia coli BL-21(DE3) assessed as inhibition of pup-ylation using Mtb DHFR substrate at 20 uM by SDS-PAGE analysis.
Assay [5] shares this target. Kind of assay: Binding affinity to Mycobacterium tuberculosis PafA expressed in Escherichia coli BL-21(DE3) assessed as increase in thermal stability by measuring change in melting temperature in at 50 uM by CESTA analysis.
The target is the same in assay [6]. Kind of assay: Inhibition of Mycobacterium tuberculosis PafA expressed in Escherichia coli BL-21(DE3) assessed as inhibition of pup-ylation using Mtb InhA substrate at 20 uM by SDS-PAGE analysis.
The target in assay [7] is T3, Pup--protein ligase (Corynebacterium glutamicum) (UniProt Q8NQE1).
T3 sequence (whole entry): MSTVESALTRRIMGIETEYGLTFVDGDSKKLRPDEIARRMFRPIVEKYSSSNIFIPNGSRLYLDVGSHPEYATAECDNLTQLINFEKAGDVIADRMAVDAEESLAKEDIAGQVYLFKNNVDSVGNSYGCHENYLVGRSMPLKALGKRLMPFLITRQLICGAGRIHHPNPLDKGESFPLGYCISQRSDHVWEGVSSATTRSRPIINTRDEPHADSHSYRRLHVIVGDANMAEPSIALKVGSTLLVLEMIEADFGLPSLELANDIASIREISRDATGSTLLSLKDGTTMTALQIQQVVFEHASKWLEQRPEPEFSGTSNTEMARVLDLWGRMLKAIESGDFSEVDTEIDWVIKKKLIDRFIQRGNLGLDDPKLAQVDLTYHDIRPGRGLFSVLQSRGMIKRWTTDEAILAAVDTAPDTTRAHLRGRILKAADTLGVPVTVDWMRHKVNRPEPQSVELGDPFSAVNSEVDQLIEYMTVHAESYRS
Kind of assay: Inhibition of Corynebacterium glutamicum PafA expressed in Escherichia coli BL-21(DE3) assessed as inhibition of pup-ylation using Mtb PanB substrate at 20 uM by SDS-PAGE analysis.

For assay [8], the target named is T1, Pup--protein ligase (Mycobacterium tuberculosis). Kind of assay: Binding affinity to Mycobacterium tuberculosis PafA expressed in Escherichia coli BL-21(DE3) assessed as increase in thermal stability at 40 uM incubated for 15 mins at 25 degC followed by incubated at 52 to 72 degC for 5 mins by CESTA analysis.
Assay [9] has the same target. As to the kind of experiment: Inhibition of Mycobacterium tuberculosis PafA expressed in Escherichia coli BL-21(DE3) assessed as inhibition of pup-ylation using Mtb KasA substrate at 20 uM by SDS-PAGE analysis.
For assay [10] the target is unchanged. Kind of assay: Inhibition of Mycobacterium tuberculosis PafA expressed in Escherichia coli BL-21(DE3) assessed as inhibition of pup-ylation using Mtb PknB substrate at 20 uM by SDS-PAGE analysis.
For assay [11], the target named is T4, Pup--protein ligase (Corynebacterium glutamicum, UniProt Q8NQE1).
T4 sequence (Q8NQE1 whole entry): T3 sequence (whole entry)
As to the kind of experiment: Activation of Corynebacterium glutamicum PafA expressed in Escherichia coli BL-21(DE3) assessed as pup-ylation using Mtb KasA substrate by SDS-PAGE analysis.

Assay [12] deals with T4, Pup--protein ligase. As to the kind of experiment: Activation of Corynebacterium glutamicum PafA expressed in Escherichia coli BL-21(DE3) assessed as pup-ylation using Mtb PanB substrate by SDS-PAGE analysis.
In assay [13] the target is T1, Pup--protein ligase (Mycobacterium tuberculosis). As to the kind of experiment: Activation of Mycobacterium tuberculosis PafA expressed in Escherichia coli BL-21(DE3) assessed as pup-ylation using Mtb KasA substrate at 20 uM by SDS-PAGE analysis. The settings on record: filed as activator.
For assay [14] the target is unchanged. Kind of assay: Activation of Mycobacterium tuberculosis PafA expressed in Escherichia coli BL-21(DE3) assessed as pup-ylation using Mtb PanB substrate at 20 uM by SDS-PAGE analysis. The settings on record: filed as activator.
Assay [15] shares this target. As to the kind of experiment: Activation of Mycobacterium tuberculosis PafA expressed in Escherichia coli BL-21(DE3) assessed as pup-ylation using Mtb PknB substrate at 20 uM by SDS-PAGE analysis. The following applies: filed as activator.
Assay [16] has the same target. Kind of assay: Activation of Mycobacterium tuberculosis PafA expressed in Escherichia coli BL-21(DE3) assessed as pup-ylation using Mtb InhA substrate at 20 uM by SDS-PAGE analysis. The settings on record: filed as activator.
For assay [17] the target is unchanged. Kind of assay: Activation of Mycobacterium tuberculosis PafA expressed in Escherichia coli BL-21(DE3) assessed as pup-ylation using Mtb DHFR substrate at 20 uM by SDS-PAGE analysis. The following applies: filed as activator.

For the compound `Oc1ccccc1Sc1cc(Cl)cc(Cl)c1`, in [1], the inhibition result was “Active”.

Regarding `Oc1ccc(Cl)cc1Sc1cc(Cl)cc(Cl)c1`, the inhibition result in assay [1] is “Active”.

For `Oc1c(Cl)cc(Cl)cc1Sc1cc(Cl)cc(Cl)c1O` [BITHIONOL], in assay [2], the IC50 was 15.9 µM. Besides, the inhibition result in [1] is “Active”. In assay [3], the MIC90 came to 89.9 µM (≈ 32 µg/mL).

As to `O=C(O)/C=C/c1ccc(-c2ccc(O)c(C34CC5CC(CC(C5)C3)C4)c2)cc1` [ADAROTENE], the inhibition result in [4], in assay [6], in assay [7], in assay [9], in assay [10] and in [1] was “Active” throughout. For the same compound, the ΔTm in assay [5] was found to be 2.5 °C. Also, the result in assay [8] was Active. Moreover, the IC50 in assay [2] amounted to 17.9 µM. Besides, the MIC90 in [3] came to 164 µM (≈ 61.4 µg/mL).

`COCCn1c2c([n+](Cc3cnccn3)c1C)C(=O)c1ccccc1C2=O` [SEPANTRONIUM]: the EC50 in assay [11] was determined as 2 µM; in assay [12], 1.7 µM.

As for `Oc1ccccc1Sc1cc(Cl)cc(Cl)c1Cl`, the inhibition entry in assay [1] was “Active”.

`COCC[n+]1c2c(n(Cc3cnccn3)c1C)C(=O)c1ccccc1C2=O`: the result in [13], in assay [14], in [15], in assay [16] and in assay [17] was Active.
